Reference: ChEMBL document CHEMBL3885861, “Open TG-GATES”

Species: Rattus norvegicus
Experiment: Open TG-GATES - Regimen: Single
Format: toxicity, organism-based, Sprague-Dawley
Parameters: regimen Single, gender Male, age 6 weeks
Settings: in vivo, po, 30 mg/kg, route gavage, dose level Low; for APTT / Bas / Eos / Fbg / Hb / Ht / Lym / MCH / MCHC / MCV / Mono / Neu / PT / Plat / RBC / Ret / WBC: tissue Blood; for KIDNEY_L / KIDNEY_R / KIDNEY_TOTAL: tissue Kidney; for LIVER: tissue Liver; for A/G / ALP / ALT / AST / BUN / CRE / Ca / Cl / DBIL / GLC / IP / K / LDH / Na / PL / RALB / TBIL / TC / TG / TP / gamma-GTP: tissue Plasma

Compound NC(=O)N/N=C/c1ccc([N+](=O)[O-])o1 [NITROFURAZONE] has a TERMINAL_BW (3 h) of 181.5 g, an APTT (3 h) of 16.4 s and a Bas (3 h) of 0.2%. The Eos (3 h) was 0.8%, the Fbg (3 h) was 262.8 mg/dL and the Hb (3 h) was 13 g/dL. The Ht (3 h) was 40.6%, the Lym (3 h) was 68.6% and the MCH (3 h) was 21.7 pg. The MCHC (3 h) was 31.9%, the MCV (3 h) was 67.8 fL and the Mono (3 h) was 3.6%. The Neu (3 h) was 26%, the PT (3 h) was 14.8 s and the Plat (3 h) was 116.3 x10_4/uL. It also gave an RBC (3 h) of 598.8 x10_4/ul, a Ret (3 h) of 10.6% and a WBC (3 h) of 92.5 x10_2/uL. It also gave a KIDNEY_L (3 h) of 0.8 g, a KIDNEY_R (3 h) of 0.8 g and a KIDNEY_TOTAL (3 h) of 1.6 g. It also gave an LIVER (3 h) of 8.1 g, an A/G (3 h) of 0.9 and an ALP (3 h) of 1547.4 IU/L. The ALT (3 h) was 43 IU/L, the AST (3 h) was 76.8 IU/L and the BUN (3 h) was 10.8 mg/dL. For the same compound, the CRE (3 h) was 0.2 mg/dL, the Ca (3 h) was 11.3 mg/dL and the Cl (3 h) was 106.4 meq/L. The DBIL (3 h) was 0.01 mg/dL, the GLC (3 h) was 175 mg/dL and the IP (3 h) was 9.7 mg/dL. It also gave a K (3 h) of 4 meq/L, an LDH (3 h) of 47.2 IU/L and a Na (3 h) of 142.8 meq/L. The PL (3 h) was 145.4 mg/dL, the RALB (3 h) was 2.4 g/dL and the TBIL (3 h) was 0.054 mg/dL. It also gave a TC (3 h) of 81 mg/dL, a TG (3 h) of 48 mg/dL and a TP (3 h) of 5.2 g/dL. The gamma-GTP (3 h) was 1.6 IU/L, the TERMINAL_BW (6 h) was 178.8 g and the APTT (6 h) was 16 s. The Bas (6 h) was 0%, the Eos (6 h) was 0.8% and the Fbg (6 h) was 253.2 mg/dL. For the same compound, the Hb (6 h) was 12.8 g/dL, the Ht (6 h) was 39.9% and the Lym (6 h) was 71%. For the same compound, the MCH (6 h) was 21.3 pg, the MCHC (6 h) was 32.1% and the MCV (6 h) was 66.5 fL. The Mono (6 h) was 2.8%, the Neu (6 h) was 24% and the PT (6 h) was 14.6 s. It also gave a Plat (6 h) of 116.1 x10_4/uL, an RBC (6 h) of 599.8 x10_4/ul and a Ret (6 h) of 10.6%. For the same compound, the WBC (6 h) was 83.2 x10_2/uL, the KIDNEY_L (6 h) was 0.8 g and the KIDNEY_R (6 h) was 0.8 g. For the same compound, the KIDNEY_TOTAL (6 h) was 1.6 g, the LIVER (6 h) was 7.6 g and the A/G (6 h) was 0.9. The ALP (6 h) was 1430.2 IU/L, the ALT (6 h) was 43.6 IU/L and the AST (6 h) was 76.8 IU/L. The BUN (6 h) was 7.8 mg/dL, the CRE (6 h) was 0.2 mg/dL and the Ca (6 h) was 11 mg/dL. The Cl (6 h) was 105 meq/L, the DBIL (6 h) was 0.01 mg/dL and the GLC (6 h) was 167.4 mg/dL. For the same compound, the IP (6 h) was 10.3 mg/dL, the K (6 h) was 4 meq/L and the LDH (6 h) was 52.6 IU/L. The Na (6 h) was 141 meq/L, the PL (6 h) was 139 mg/dL and the RALB (6 h) was 2.4 g/dL. For the same compound, the TBIL (6 h) was 0.062 mg/dL, the TC (6 h) was 83.6 mg/dL and the TG (6 h) was 33.2 mg/dL. The TP (6 h) was 5.1 g/dL, the gamma-GTP (6 h) was 1.6 IU/L and the TERMINAL_BW (9 h) was 179 g. The APTT (9 h) was 16 s, the Bas (9 h) was 0% and the Eos (9 h) was 1%. The Fbg (9 h) was 264.6 mg/dL, the Hb (9 h) was 12.7 g/dL and the Ht (9 h) was 39.3%. It also gave a Lym (9 h) of 76.6%, an MCH (9 h) of 21.1 pg and an MCHC (9 h) of 32.4%. The MCV (9 h) was 65.3 fL, the Mono (9 h) was 2.8% and the Neu (9 h) was 19%. The PT (9 h) was 14.9 s, the Plat (9 h) was 105.2 x10_4/uL and the RBC (9 h) was 601.4 x10_4/ul. The Ret (9 h) was 10.5%, the WBC (9 h) was 60.9 x10_2/uL and the KIDNEY_L (9 h) was 0.8 g. The KIDNEY_R (9 h) was 0.8 g, the KIDNEY_TOTAL (9 h) was 1.7 g and the LIVER (9 h) was 7.2 g. It also gave an A/G (9 h) of 0.9, an ALP (9 h) of 1367.6 IU/L and an ALT (9 h) of 42.8 IU/L. The AST (9 h) was 76 IU/L, the BUN (9 h) was 7.4 mg/dL and the CRE (9 h) was 0.1 mg/dL. For the same compound, the Ca (9 h) was 10.8 mg/dL, the Cl (9 h) was 105.6 meq/L and the DBIL (9 h) was 0.016 mg/dL. For the same compound, the GLC (9 h) was 163.6 mg/dL, the IP (9 h) was 10.3 mg/dL and the K (9 h) was 3.7 meq/L. It also gave an LDH (9 h) of 48.8 IU/L, a Na (9 h) of 141.4 meq/L and a PL (9 h) of 133.2 mg/dL. For the same compound, the RALB (9 h) was 2.4 g/dL, the TBIL (9 h) was 0.064 mg/dL and the TC (9 h) was 72.4 mg/dL. The TG (9 h) was 40.4 mg/dL, the TP (9 h) was 5.2 g/dL and the gamma-GTP (9 h) was 1.2 IU/L. The TERMINAL_BW (24 h) was 197.2 g, the APTT (24 h) was 15.8 s and the Bas (24 h) was 0.2%. It also gave an Eos (24 h) of 0.8%, a Fbg (24 h) of 260 mg/dL and a Hb (24 h) of 12.3 g/dL. For the same compound, the Ht (24 h) was 38%, the Lym (24 h) was 79% and the MCH (24 h) was 21.5 pg. It also gave an MCHC (24 h) of 32.3%, an MCV (24 h) of 66.5 fL and a Mono (24 h) of 3.6%. It also gave a Neu (24 h) of 16%, a PT (24 h) of 14.8 s and a Plat (24 h) of 112 x10_4/uL. It also gave an RBC (24 h) of 571.2 x10_4/ul, a Ret (24 h) of 10.6% and a WBC (24 h) of 87.3 x10_2/uL. For the same compound, the KIDNEY_L (24 h) was 0.9 g, the KIDNEY_R (24 h) was 0.9 g and the KIDNEY_TOTAL (24 h) was 1.8 g. For the same compound, the LIVER (24 h) was 9.3 g, the A/G (24 h) was 0.9 and the ALP (24 h) was 1764.6 IU/L. The ALT (24 h) was 50.2 IU/L, the AST (24 h) was 75.2 IU/L and the BUN (24 h) was 14.6 mg/dL. For the same compound, the CRE (24 h) was 0.2 mg/dL, the Ca (24 h) was 11.4 mg/dL and the Cl (24 h) was 104.6 meq/L. The DBIL (24 h) was 0.014 mg/dL, the GLC (24 h) was 179.2 mg/dL and the IP (24 h) was 9.1 mg/dL. For the same compound, the K (24 h) was 4 meq/L, the LDH (24 h) was 64.2 IU/L and the Na (24 h) was 142 meq/L. For the same compound, the PL (24 h) was 145.6 mg/dL, the RALB (24 h) was 2.5 g/dL and the TBIL (24 h) was 0.048 mg/dL. For the same compound, the TC (24 h) was 80.2 mg/dL, the TG (24 h) was 62.6 mg/dL and the TP (24 h) was 5.4 g/dL. It also gave a gamma-GTP (24 h) of 1 IU/L.
